Patent US12281122B1, “PI3K inhibitors” (Cogent Biosciences, Inc., priority 2023, dated 2025)
Read-outs that look alike come from different tables or passages of the source.

Assays:
Mouse PK, IV and PO = settings: in vivo; for clearance: read-out: PK-Mouse: IV Cl; for bioavailability: read-out: PK-Mouse: PO F (%)
PI3Kα = PI3Kα (Homo sapiens, UniProt P42336); assay: PI3Kα enzyme assay (Transcreener ADP2 TR-FRET Red Assay); format: biochemical; settings: purified recombinant full-length protein; 2 hours pre-incubation with compound; read-out: PI3Kα WT IC50
PI3Kα, sequence (P42336 whole entry): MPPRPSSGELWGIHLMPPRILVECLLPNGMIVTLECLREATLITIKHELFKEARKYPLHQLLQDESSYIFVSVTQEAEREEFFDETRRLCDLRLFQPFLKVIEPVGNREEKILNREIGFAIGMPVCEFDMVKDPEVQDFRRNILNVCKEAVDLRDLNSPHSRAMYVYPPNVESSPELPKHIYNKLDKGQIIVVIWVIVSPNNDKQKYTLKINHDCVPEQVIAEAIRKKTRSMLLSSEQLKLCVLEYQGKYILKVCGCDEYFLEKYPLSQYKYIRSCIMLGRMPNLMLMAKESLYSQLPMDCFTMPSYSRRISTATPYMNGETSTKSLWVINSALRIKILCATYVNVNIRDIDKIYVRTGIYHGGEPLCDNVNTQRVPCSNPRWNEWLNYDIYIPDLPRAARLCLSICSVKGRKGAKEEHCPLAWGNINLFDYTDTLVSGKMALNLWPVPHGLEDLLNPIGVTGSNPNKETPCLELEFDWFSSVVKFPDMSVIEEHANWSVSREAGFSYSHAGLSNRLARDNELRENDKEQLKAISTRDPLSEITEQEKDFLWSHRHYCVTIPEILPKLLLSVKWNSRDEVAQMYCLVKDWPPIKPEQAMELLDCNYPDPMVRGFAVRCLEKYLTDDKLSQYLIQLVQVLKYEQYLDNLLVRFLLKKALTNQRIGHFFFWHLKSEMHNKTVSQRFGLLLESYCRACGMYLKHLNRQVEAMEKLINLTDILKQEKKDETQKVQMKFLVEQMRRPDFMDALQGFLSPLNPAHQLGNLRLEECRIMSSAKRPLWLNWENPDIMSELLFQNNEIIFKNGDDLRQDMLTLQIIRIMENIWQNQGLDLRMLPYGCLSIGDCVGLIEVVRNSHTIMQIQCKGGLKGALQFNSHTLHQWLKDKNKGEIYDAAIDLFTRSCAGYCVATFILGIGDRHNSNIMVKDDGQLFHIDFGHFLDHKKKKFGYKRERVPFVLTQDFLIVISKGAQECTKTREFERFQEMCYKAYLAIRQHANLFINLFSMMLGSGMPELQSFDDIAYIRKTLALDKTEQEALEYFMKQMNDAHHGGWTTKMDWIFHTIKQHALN
PI3Kα, sequence (P27986 2-724 partner): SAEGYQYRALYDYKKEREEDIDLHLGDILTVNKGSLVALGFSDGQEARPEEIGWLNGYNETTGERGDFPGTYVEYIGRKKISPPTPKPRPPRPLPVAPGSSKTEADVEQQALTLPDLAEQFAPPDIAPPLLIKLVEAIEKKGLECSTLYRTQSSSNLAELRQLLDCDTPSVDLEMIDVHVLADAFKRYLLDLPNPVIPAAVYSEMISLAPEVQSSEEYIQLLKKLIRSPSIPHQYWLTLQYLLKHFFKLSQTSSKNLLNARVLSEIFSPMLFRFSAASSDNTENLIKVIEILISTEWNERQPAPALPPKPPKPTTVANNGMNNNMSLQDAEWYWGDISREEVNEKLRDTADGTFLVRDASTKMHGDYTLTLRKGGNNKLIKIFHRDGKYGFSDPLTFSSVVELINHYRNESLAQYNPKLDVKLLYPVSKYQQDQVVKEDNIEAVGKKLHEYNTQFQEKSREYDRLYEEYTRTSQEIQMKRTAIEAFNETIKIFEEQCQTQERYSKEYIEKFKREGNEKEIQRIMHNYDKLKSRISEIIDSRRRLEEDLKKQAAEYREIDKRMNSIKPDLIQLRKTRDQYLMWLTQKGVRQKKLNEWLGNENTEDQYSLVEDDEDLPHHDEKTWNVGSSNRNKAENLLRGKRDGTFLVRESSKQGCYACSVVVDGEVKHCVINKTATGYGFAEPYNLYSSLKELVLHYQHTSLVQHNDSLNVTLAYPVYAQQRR
Summary of the method: (§1)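 Purified recombinant full-length enzymes pre-incubated 2 h at room temperature with compounds (11-point 1:3 dilutions, typically 50,000–0.85 nM), then started with ATP/PI(4,5)P2 diC8 and run 60 min at room temperature in 40 mM HEPES pH 7.5, 20 mM NaCl, 25 mM MgCl2, 0.01% Triton X-100. ADP detected by TR-FRET 665/615 ratio; IC50 from four-parameter fit of percent of control.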

PI3Kα H1047R = PI3Kα H1047R (Homo sapiens, UniProt P42336, H1047R); assay: PI3Kα H1047R enzyme assay (Transcreener ADP2 TR-FRET Red Assay); format: biochemical; settings: purified recombinant full-length protein; 2 hours pre-incubation with compound
PI3Kα H1047R, sequence (P42336 whole entry H1047R): as the sequence (P42336 whole entry) above, with H1047R counted along it
PI3Kα H1047R, sequence (P27986 2-724 partner): as the sequence (P27986 2-724 partner) above
Summary of the method: as §1

[1] = system: T47D (PI3Kα-H1047R) cell line; assay: HTRF phospho-AKT(S473) cell assay in T47D cells; format: cell-based, human; settings: Homo sapiens; T47D (PI3Kα-H1047R) cells, HTRF phospho-AKT(S473), 2 hours compound incubation
Summary of the method: (§2)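 T47D (PI3Kα-H1047R; RPMI, 10% FBS, insulin) and SKBR3 (wild-type PI3Kα; McCoy's 5A, 10% FBS) cells treated 2 h at 37 °C with 12-point 1:3 dilutions, top 5 μM and 10 μM respectively, ≤0.5% DMSO. SKBR3 stimulated with 70 ng/ml PDGF-BB for the last 15 min; lysate pAKT(S473) by HTRF, IC50 from curves.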

[2] = system: SKBR3 (PI3Kα-Wild Type) cell line; assay: HTRF phospho-AKT(S473) cell assay in SKBR3 cells; format: cell-based, human; settings: Homo sapiens, SK-BR-3; SKBR3 (PI3Kα-Wild Type) cells, HTRF phospho-AKT(S473), 2 hours compound incubation, PDGF-BB stimulated
Summary of the method: as §2

[3] = IV dose 3 mg/kg, read-out: PK-Mouse: IV-AUCinf
[4] = PO dose 30 mg/kg, 20% Captisol (aq), fed
[5] = PO dose 30 mg/kg, 20% Captisol (aq), fed, read-out: PK-Mouse: PO AUCinf

Row | Compound | clearance (Mouse PK, IV and PO; IV dose 3 mg/kg) [mL/min/kg] | AUC(0-inf) (Mouse PK, IV and PO; [3]) [ng·h/mL] | Cmax (Mouse PK, IV and PO; [4]) [ng/mL] | AUC(0-inf) (Mouse PK, IV and PO; [5]) [ng·h/mL] | bioavailability (Mouse PK, IV and PO; [4]) [%] | IC50 (PI3Kα) [nM] | IC50 (PI3Kα H1047R) [nM] | IC50 [1] [nM] | IC50 [2] [nM]
1 | Cc1cc([C@@H](C)Nc2ccc(Cl)nc2C(=O)O)c2nc(N3Cc4ccc(F)cc4C3)n(C)c(=O)c2c1 [Compound 1 acid derivative, (R)-6-chloro-3-((1-(2-(5-fluoroisoindolin-2-yl)-3,6-dimethyl-4-oxo-3,4-dihydroquinazolin-8-yl)ethyl)amino)picolinic acid, reference compound] | 24.3 | 2070 | 2490 | 8850 | 43 | – | – | – | –
2 | C[C@@H](Nc1ccc(Cl)[nH]c1=O)c1cc(F)cc2c(=O)n(C)c(N3Cc4ccc(F)cc4C3)nc12 [Compound 99, (R)-8-(1-((6-chloro-2-oxo-1,2-dihydropyridin-3-yl)amino)ethyl)-6-fluoro-2-(5-fluoroisoindolin-2-yl)-3-methylquinazolin-4(3H)-one] | – | – | – | – | – | ≥ 1000 | 100 to 250 | 500 to 1000 | ≥ 5000
3 | C[C@@H](Nc1ccc(Cl)[nH]c1=O)c1cc(F)cc2c(=O)n(C)c(N3Cc4cnn(C)c4C3)nc12 [Compound 100, (R)-8-(1-((6-chloro-2-oxo-1,2-dihydropyridin-3-yl)amino)ethyl)-6-fluoro-3-methyl-2-(1-methyl-4,6-dihydropyrrolo[3,4-c]pyrazol-5(1H)-yl)quinazolin-4(3H)-one] | – | – | – | – | – | ≥ 1000 | < 100 | < 250 | ≥ 5000
4 | C[C@@H](Nc1ccc(Cl)[nH]c1=O)c1cc(F)cc2c(=O)n(C)c(N3CCOCC3)nc12 [Compound 101, (R)-8-(1-((6-chloro-2-oxo-1,2-dihydropyridin-3-yl)amino)ethyl)-6-fluoro-3-methyl-2-morpholinoquinazolin-4(3H)-one] | – | – | – | – | – | ≥ 1000 | 100 to 250 | 1000 to 5000 | ≥ 5000

Second part, the molecule after the results:

Row | clearance (Mouse PK, IV and PO; IV dose 3 mg/kg) [mL/min/kg] | AUC(0-inf) (Mouse PK, IV and PO; [3]) [ng·h/mL] | Cmax (Mouse PK, IV and PO; [4]) [ng/mL] | AUC(0-inf) (Mouse PK, IV and PO; [5]) [ng·h/mL] | bioavailability (Mouse PK, IV and PO; [4]) [%] | IC50 (PI3Kα) [nM] | IC50 (PI3Kα H1047R) [nM] | IC50 [1] [nM] | IC50 [2] [nM] | Compound
5 | 0.74 | 67500 | 35500 | 548000 | 81 | ≥ 1000 | 500 to 1000 | < 250 | 1000 to 5000 | Cc1cc([C@@H](C)Nc2ccc(Cl)nc2C(=O)NS(C)(=O)=O)c2nc(N3Cc4ccc(F)cc4C3)n(C)c(=O)c2c1 [Compound 1, (R)-6-chloro-3-((1-(2-(5-fluoroisoindolin-2-yl)-3,6-dimethyl-4-oxo-3,4-dihydroquinazolin-8-yl)ethyl)amino)-N-(methylsulfonyl)picolinamide]
6 | – | – | – | – | – | ≥ 1000 | ≥ 1000 | 1000 to 5000 | 1000 to 5000 | Cc1cc([C@@H](C)Nc2ccn[nH]c2=O)c2nc(N3Cc4ccc(F)cc4C3)n(C)c(=O)c2c1 [Compound 95, (R)-2-(5-fluoroisoindolin-2-yl)-3,6-dimethyl-8-(1-((3-oxo-2,3-dihydropyridazin-4-yl)amino)ethyl)quinazolin-4(3H)-one]
7 | – | – | – | – | – | ≥ 1000 | ≥ 1000 | 1000 to 5000 | ≥ 5000 | COc1nc(Cl)ccc1N[C@H](C)c1cc(C)cc2c(=O)n(C)c(N3Cc4ccc(F)cc4C3)nc12 [Compound 96, (R)-8-(1-((6-chloro-2-methoxypyridin-3-yl)amino)ethyl)-2-(5-fluoroisoindolin-2-yl)-3,6-dimethylquinazolin-4(3H)-one]
8 | – | – | – | – | – | ≥ 1000 | ≥ 1000 | 500 to 1000 | ≥ 5000 | Cc1cc([C@@H](C)Nc2ccc(C)[nH]c2=O)c2nc(N3Cc4ccc(F)cc4C3)n(C)c(=O)c2c1 [Compound 97, (R)-2-(5-fluoroisoindolin-2-yl)-3,6-dimethyl-8-(1-((6-methyl-2-oxo-1,2-dihydropyridin-3-yl)amino)ethyl)quinazolin-4(3H)-one]
9 | – | – | – | – | – | ≥ 1000 | ≥ 1000 | 1000 to 5000 | ≥ 5000 | C[C@@H](Nc1ccc[nH]c1=O)c1cc(F)cc2c(=O)n(C)c(N3Cc4cnn(C)c4C3)nc12 [Compound 98, (R)-6-fluoro-3-methyl-2-(1-methyl-4,6-dihydropyrrolo[3,4-c]pyrazol-5(1H)-yl)-8-(1-((2-oxo-1,2-dihydropyridin-3-yl)amino)ethyl)quinazolin-4(3H)-one]
